Like-named read-outs stand apart in the source and are kept apart here. Square brackets hold non-standard residues; d marks the D form. Peptide text beside a SMILES is read from it. * marks the point of attachment. X1 = O=C(COc1ccc(/C=C/C2=[N+]3C(=Cc4ccc(-c5cccs5)n4[B-]3(F)F)C=C2)cc1)*; Propanoyl(3-Pip(4-O-2-BnPh)) = O=C(CCN1CCC(Oc2ccccc2Cc2ccccc2)CC1)*; X3 = Cc1cc(C)n2c1C=C1C=CC(/C=C/c3ccc(OCC(=O)*)cc3)=[N+]1[B-]2(F)F; βAla = NCCC(=O)O
Tests used:
human H1R = biological target: T1, human H1R (Homo sapiens, UniProt P35367); test: Ca2+ mobilization assay on human H1R-expressing CHO cells; format: cell-based; conditions: Gaddum equation, shift in histamine EC25 with 1 μM antagonist
T1 construct: expressed in transfected cells; host or cells: CHO cells
Description: CHO cells expressing H1R were grown to confluence in black-walled, clear-bottom 96-well plates. On the day of the experiment, media were replaced with 100 μL of HBSS containing […], 2.3 μM Fluo-4AM (Invitrogen), 0.023% Pluronic F-127, 0.5 mM Brilliant Black BN, and 1 μM required fluorescent ligand and the plates incubated for 1 h at 37 °C in the dark. The plates were then placed in the multi-well fluorometric imaging plate reader FlexStation3 (Molecular Devices, Sunnyvale, CA) and HBSS only or HBSS containing the required concentration of histamine was added after 15 s. Fluo-4 fluorescence was measured at 520 nm (excitation at 485 nm) every 1.52 s for 200 s. For each well, the peak maximum–minimum–maximum change in fluorescence value was taken and plotted against concentration of histamine to give a dose–response curve.
Estimated affinity values (pKB) were calculated from the shift in agonist concentration–response curves in the presence of the fluorescent antagonists using the Gaddum equation (7): [drawing 10] 7 where DR (dose ratio) is the ratio of the agonist concentration required to stimulate an identical response in the presence and absence of antagonist, [B]. DR was determined from the EC25 value as there was a decrease in observed maximal efficacy of histamine in the presence of all 10 fluorescent antagonists.

Nluc-H4R [1] = biological target: T2, Nluc-H4R (Homo sapiens, UniProt Q9H3N8); test: NanoBRET saturation binding assay on Nluc-H4R HEK293T cell homogenates; conditions: for Kd / Nluc-H4R pKD: cell homogenates, highest concentration 1 μM for 31a, 31k; for Nluc-H4R pKD: mean ± SEM, three experiments; for binding at H4R in saturation assay (in words): concentrations of up to 1 μM
T2 construct: expressed in transfected cells; host or cells: HEK293T, transient transfection; sonicated cell homogenates
Description: (§1) HEK293T cells were transiently transfected with 2.5 μg of cDNA encoding Nluc-H3R or Nluc-H4R and 2.5 μg of empty pcDEF3 vector using the polyethylenimine method as described previously in Mocking et al.[23] Two days after transfection, cells were collected in phosphate-buffered saline (PBS) and centrifuged at 1900g for 10 min and the cell pellet was stored at −20°C until the day of experiment. The pellet was resuspended in HBSS buffer, and cells were disrupted using a Branson sonifier 250 (Boom bv., Meppel, the Netherlands) prior to use in a NanoBRET binding assay.
For cell membrane NanoBRET saturation binding experiments, cell homogenates expressing the Nluc-H3R or Nluc-H4R were incubated with the required concentrations of fluorescent ligand in the absence and presence of 10 μM clobenpropit in HBSS for 2 h at 25 °C. For all NanoBRET binding experiments, 10 μM NanoGlo substrate (Promega) was added to each well after the incubation period and fluorescence and luminescence emissions were measured after 5 min.
(§2) Total and non-specific saturation binding curves from NanoBRET saturation binding assay were fitted simultaneously using eq 1: [drawing 4] 1 where Bmax is the maximal specific binding, [B] is the concentration of fluorescent ligand in nM, KD is the equilibrium dissociation constant in nM, M is the slope of the non-specific component, and C is the intercept with the Y axis.

Nluc-H1R [2] = biological target: T3, Nluc-H1R (Homo sapiens, UniProt P35367); test: NanoBRET saturation binding assay on Nluc-H1R expressing HEK293T cells; set-up: expressed in transfected cells; conditions: saturation binding curves, whole HEK293T cells; for pKD: non-specific with 10 μM mepyramine, mean ± SEM
Description: as §2

Nluc-H3R = biological target: T4, Nluc-H3R (Homo sapiens, UniProt Q9Y5N1); test: NanoBRET saturation binding assay on Nluc-H3R HEK293T cell homogenates; conditions: for Kd / Nluc-H3R pKD: cell homogenates, highest concentration 1 μM for 31a, 31k; for Nluc-H3R pKD: mean ± SEM, three experiments; for binding at H3R in saturation assay (in words): concentrations of up to 1 μM
T4 construct: expressed in transfected cells; host or cells: HEK293T, transient transfection; sonicated cell homogenates
Description: as §1
For all NanoBRET binding experiments, 10 μM NanoGlo substrate (Promega) was added to each well after the incubation period and fluorescence and luminescence emissions were measured after 5 min.
as §2

Nluc-H1R [3] = biological target: T3, Nluc-H1R; test: NanoBRET association kinetics assay on Nluc-H1R HEK293T cells; format: binding; set-up: expressed in transfected cells; conditions: for Kd: kinetic pKD, read-out: pKD determined from kon and koff (converted); for Kd / kon / MRT (mean residence time, 1/koff) / koff: mean ± SEM; for residence time: read-out: mean residence times (MRT); for kon / MRT (mean residence time, 1/koff) / koff: real-time NanoBRET; for kon: room temperature, 90 min
Description: For whole cell NanoBRET association kinetic experiments, 10 μM furimazine was added to each well and incubated at room temperature in the dark for 15 min to allow for stabilization of the luminescence signal. The required concentration of fluorescent ligand in the presence or absence of 10 μM of doxepin was added simultaneously, and the plates were read immediately with each well being read once per min for 90 min.
For the NanoBRET association kinetic experiments, the BRET ratio was determined for each concentration of fluorescent ligand at each time point in the presence or absence of 10 μM of doxepin. Specific binding was calculated by subtracting non-specific binding from total binding.

YFP-tagged H1R = biological target: T5, YFP-tagged H1R (Homo sapiens, UniProt P35367); test: confocal imaging of YFP-tagged H1R expressing CHO cells; format: cell-based; conditions: 1, 5, 10, 25 nM, 30 min, 37 °C, ± 10 μM mepyramine
T5 construct: expressed in transfected cells; host or cells: CHO cells
Description: H1R-YFP expressing CHO cells were grown to approximately 80% confluency on an 8-well Labtek chambered coverglass (Nunc Nalgene). On the day of experiment, the cells were washed two times with 200 μL of HBSS and subsequently incubated in the presence or absence of 10 μM mepyramine for 30 min at 37 °C in humidified air with 0% CO2. The required concentration of 31a was added to the wells and incubated for another 30 min at 37 °C. Images were acquired using a Zeiss LSM710 confocal microscope (Carl Zeiss GmbH, Hena, Germany) fitted with a 63× plan-Apochromat NA1.3 Ph3 oil-immersion lens. For YFP, a 488 nm argon laser was used for excitation and emission was detected using a BP505-30 filter. For fluorescent ligand 31a, a 633 nm helium-neon laser was used for excitation and emission was detected using a 650 nm long pass filter. A pinhole of 1 Airy Unit was used, and fixed laser power, gain, and offset for the BODIPY 630/650 containing compounds were kept constant across all experiments.

H1R = conditions: cited from earlier work
Nluc-H4R [4] = biological target: T2, Nluc-H4R; set-up: method as in PMID 30249614; conditions: literature value, cited from earlier work
[5] = mean ± SEM, four experiments, read-out: pKB (converted)

T1 sequence (P35367 whole entry): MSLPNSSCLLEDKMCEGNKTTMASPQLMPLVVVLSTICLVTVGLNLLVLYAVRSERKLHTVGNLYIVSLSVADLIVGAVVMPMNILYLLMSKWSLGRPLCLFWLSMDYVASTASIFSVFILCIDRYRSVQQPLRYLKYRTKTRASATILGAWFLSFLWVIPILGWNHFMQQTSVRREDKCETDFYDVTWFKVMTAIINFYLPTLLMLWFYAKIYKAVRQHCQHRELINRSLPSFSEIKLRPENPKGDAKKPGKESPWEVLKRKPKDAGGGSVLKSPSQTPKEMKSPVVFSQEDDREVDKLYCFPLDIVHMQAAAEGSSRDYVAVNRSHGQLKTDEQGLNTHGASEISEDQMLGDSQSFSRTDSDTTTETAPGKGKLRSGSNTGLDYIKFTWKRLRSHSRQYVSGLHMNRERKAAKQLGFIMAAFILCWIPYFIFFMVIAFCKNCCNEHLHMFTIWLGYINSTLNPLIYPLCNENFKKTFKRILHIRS
T3 sequence (P35367 whole entry): as above
T2 sequence (Q9H3N8 whole entry): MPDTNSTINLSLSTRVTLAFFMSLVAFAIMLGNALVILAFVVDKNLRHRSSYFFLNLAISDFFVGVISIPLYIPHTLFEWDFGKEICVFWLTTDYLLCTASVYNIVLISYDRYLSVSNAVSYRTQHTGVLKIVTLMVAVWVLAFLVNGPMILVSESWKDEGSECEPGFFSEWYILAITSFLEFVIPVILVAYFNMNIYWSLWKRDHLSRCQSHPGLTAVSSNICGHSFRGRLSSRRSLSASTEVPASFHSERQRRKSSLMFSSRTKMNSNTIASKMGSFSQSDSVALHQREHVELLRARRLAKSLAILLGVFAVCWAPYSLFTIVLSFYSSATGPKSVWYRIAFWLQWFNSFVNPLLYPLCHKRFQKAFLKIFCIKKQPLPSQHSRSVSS
T4 sequence (Q9Y5N1 whole entry): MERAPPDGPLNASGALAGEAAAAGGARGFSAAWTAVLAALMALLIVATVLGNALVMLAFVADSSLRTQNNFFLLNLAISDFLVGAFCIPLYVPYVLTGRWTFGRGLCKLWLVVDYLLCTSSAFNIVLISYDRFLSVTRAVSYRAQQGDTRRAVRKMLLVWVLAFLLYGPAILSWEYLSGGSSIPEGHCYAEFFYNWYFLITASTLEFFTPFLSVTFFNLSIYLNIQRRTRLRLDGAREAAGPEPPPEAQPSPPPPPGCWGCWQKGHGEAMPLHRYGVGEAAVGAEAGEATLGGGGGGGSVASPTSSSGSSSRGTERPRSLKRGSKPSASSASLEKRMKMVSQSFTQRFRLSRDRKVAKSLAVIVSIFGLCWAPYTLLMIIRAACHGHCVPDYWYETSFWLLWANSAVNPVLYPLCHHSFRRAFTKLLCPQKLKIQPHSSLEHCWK
T5 sequence (P35367 whole entry): as the sequence (P35367 whole entry) above

| Structure (SMILES) | Kb (human H1R; read-out: KB (converted)) | Kd (Nluc-H4R [1]) | Nluc-H4R pKD (Nluc-H4R [1]) | binding at H4R in saturation assay (in words) (Nluc-H4R [1]) | Kd (Nluc-H1R [2]) | pKD (Nluc-H1R [2]) | binding at H3R in saturation assay (in words) (Nluc-H3R) | other results |
| --- | --- | --- | --- | --- | --- | --- | --- | --- |
| C[C@H](NC(=O)[C@H](C)NC(=O)[C@H](Cc1ccccc1)NC(=O)CCN1CCC(Oc2ccccc2Cc2ccccc2)CC1)C(=O)NCCC(=O)N[C@@H](CCCCNC(=O)COc1ccc(/C=C/C2=[N+]3C(=Cc4ccc(-c5cccs5)n4[B-]3(F)F)C=C2)cc1)C(N)=O [Compound 31k, (S)-2-((6S,9S,12S)-12-Benzyl-16-(4-(2-benzylphenoxy)piperidin-1-yl)-6,9-dimethyl-5,8,11,14-tetraoxo-4,7,10,13-tetraazahexadecanamido)-6-(2-(4-((E)-2-(5,5-difluoro-7-(thiophen-2-yl)-5H-5λ^4,6λ^4-dipyrr-olo[1,2-c:2’,1’-f][1,3,2]diazaborinin-3-yl)vinyl)phenoxy)acetamido)hexanamide] ({Propanoyl(3-Pip(4-O-2-BnPh))}-FAA[βAla]K(X1)-NH2) | 3 nM | < 1000 nM | < 6 | little to no binding | 12 nM | 7.92 ± 0.08 | little to no binding | Kb (human H1R; [5]): 2.57 nM; Kd (Nluc-H3R): < 1000 nM; Nluc-H3R pKD (Nluc-H3R): < 6; selectivity for H1R over H3R and H4R (Nluc-H3R; from NanoBRET saturation binding at H1R, H3R, H4R): approximately 100 fold; Kd (Nluc-H1R [3]): 22.9 nM; residence time (Nluc-H1R [3]): > 60 min; kon (Nluc-H1R [3]): 11400 M⁻¹ s⁻¹; MRT (mean residence time, 1/koff) (Nluc-H1R [3]): 1.31 ± 0.24 h; koff (Nluc-H1R [3]): 0.000233 s⁻¹ |
| CC(C)[C@H](NC(=O)CCN1CCC(Oc2ccccc2Cc2ccccc2)CC1)C(=O)N[C@@H](CO)C(=O)N[C@@H](CC(N)=O)C(=O)NCCC(=O)N[C@@H](CCCCNC(=O)CCCCC[N+]1=C(/C=C/C=C/C=C2/N(C)c3ccc(S(=O)(=O)[O-])cc3C2(C)C)C(C)(C)c2cc(S(=O)(=O)O)ccc21)C(N)=O [Compound 38f, 1-((5S,8S,11S,18S)-11-(2-Amino-2-oxoethyl)-1-(4-(2-benzylphenoxy)piperidin-1-yl)-18-carbamoyl-8-(hydroxymethyl)-5-isopropyl-3,6,9,12,16,24-hexaoxo-4,7,10,13,17,23-hexaazanonacosan-29-yl)-3,3-dimethyl-2-((1E,3E)-5-((E)-1,3,3-trimethyl-5-sulfonatoindolin-2-ylidene)penta-1,3-dien-1-yl)-3H-indol-1-ium-5-sulfonate] | 4680 nM |  |  |  | 2190 nM | 5.66 ± 0.02 |  |  |
| CC(C)[C@H](NC(=O)CCN1CCC(Oc2ccccc2Cc2ccccc2)CC1)C(=O)N[C@@H](CO)C(=O)N[C@@H](CC(N)=O)C(=O)NCCC(=O)N[C@@H](CCCCNC(=O)COc1ccc(/C=C/C2=[N+]3C(=Cc4ccc(-c5cccs5)n4[B-]3(F)F)C=C2)cc1)C(N)=O [Compound 31a, (S)-N1-(3-(((S)-1-Amino-6-(2-(4-((E)-2-(5,5-difluoro-7-(thiophen-2-yl)-5H-5λ^4,6λ^4-dipyrrolo[1,2-c:2’,1’-f][1,3,2]diazaborinin-3-yl)vinyl)phenoxy)acetamido)-1-oxohexan-2-yl)amino)-3-oxopropyl)-2-((S)-2-((S)-2-(3-(4-(2-benzylphenoxy)piperidin-1-yl)propanamido)-3-methylbutanamido)-3-hydroxypropanamido)succinamide] ({Propanoyl(3-Pip(4-O-2-BnPh))}-VSN[βAla]K(X1)-NH2) | 3 nM | < 1000 nM | < 6 | little to no binding | 4 nM | 8.40 ± 0.08 | little to no binding | Kb (human H1R; [5]): 2.75 nM; Kd (Nluc-H3R): < 1000 nM; Nluc-H3R pKD (Nluc-H3R): < 6; Kd (Nluc-H1R [3]): 17.8 nM; residence time (Nluc-H1R [3]): > 60 min; kon (Nluc-H1R [3]): 14000 M⁻¹ s⁻¹; MRT (mean residence time, 1/koff) (Nluc-H1R [3]): 1.26 ± 0.17 h; koff (Nluc-H1R [3]): 0.000233 s⁻¹; localization in confocal imaging (YFP-tagged H1R): localized to the plasma membrane of the cells with almost no intracellular uptake |
| c1ccc(Cc2ccccc2OC2CCNCC2)cc1 [VUF13816, 4-(2-Benzylphenoxy)piperidine] |  |  |  |  |  |  |  | radioligand binding assay pKi (H1R; H1R): 8.20 |
| C[C@@H](NC(=O)CCN1CCC(Oc2ccccc2Cc2ccccc2)CC1)C(=O)N[C@H](C)C(=O)N[C@H](C)C(=O)NCCNC(=O)CCCCCNC(=O)COc1ccc(/C=C/C2=[N+]3C(=Cc4ccc(-c5cccs5)n4[B-]3(F)F)C=C2)cc1 [Compound 1] |  |  |  |  |  |  |  | Radioligand binding assay (hH1R) pKi (H1R): 8.4 ± 0.1 |
| NC(=NCc1ccc(Cl)cc1)SCCCc1cnc[nH]1 [CA200843, reference compound] |  | 31 nM | 7.51 ± 0.04 | concentration-dependent, saturable and reversible binding |  |  | concentration-dependent, saturable and reversible binding | pKD at Nluc-H4R reported in literature (Nluc-H4R [4]): 7.15; Kd (Nluc-H4R [4]; read-out: binding affinity at Nluc-H4R reported in literature): 70 nM |
| Cc1cc(C)n2c1C=C1C=CC(/C=C/c3ccc(OCC(=O)NCCCC[C@H](NC(=O)CCNC(=O)[C@H](C)NC(=O)[C@H](C)NC(=O)[C@H](Cc4ccccc4)NC(=O)CCN4CCC(Oc5ccccc5Cc5ccccc5)CC4)C(N)=O)cc3)=[N+]1[B-]2(F)F [Compound 39b, (S)-2-((6S,9S,12S)-12-Benzyl-16-(4-(2-benzylphenoxy)piperidin-1-yl)-6,9-dimethyl-5,8,11,14-tetraoxo-4,7,10,13-tetraazahexadecanamido)-6-(2-(4-((E)-2-(5,5-difluoro-7,9-dimethyl-5H-5λ^4,6λ^4-dipyrrolo[1,2-c:2’,1’-f][1,3,2]diazaborinin-3-yl)vinyl)phenoxy)acetamido)hexanamide] ({Propanoyl(3-Pip(4-O-2-BnPh))}-FAA[βAla]K(X3)-NH2) | 102 nM |  |  |  | 44 nM | 7.36 ± 0.03 |  |  |

Reference: paper PMC9234962, “Optimization of Peptide Linker-Based Fluorescent Ligands for the Histamine H1 Receptor” (Journal of Medicinal Chemistry, 2022)
